Experimental data: paper PMC10222270, “Natural Product-Based Screening for Lead Compounds Targeting SARS CoV-2 M^pro” (Pharmaceuticals, 2023)
“And” between values parts separate entries of the source, which are not always exact repeats. Identical values can stand only once.

Legend:
[1] = molecular target: T1, SARS CoV-2 M^pro (Severe acute respiratory syndrome coronavirus 2, UniProt P0DTD1); assay: Surface plasmon resonance (SPR) binding to biotinylated M^pro; settings: SPR, single concentration 200 μM
T1 construct: The main protease (M^pro) is a part of the polyprotein chain, also named 3C-like protease; SUMO (cleaved yes); His; made in house; host or cells: Escherichia coli BL21(DE3)

[2] = molecular target: T1, SARS CoV-2 M^pro; assay: biochemical; format: biochemical; settings: for inhibition at 80 µM: read-out: Inhibition%(80μM)
[3] = 0.02%(v/v) Triton X−100 in buffer

SMILES	binding trend to M^pro [1]	Inhibition%(80μM) [2]	IC50 [2, 3] [µM]	IC50 ([2]; Without Triton X−100) [µM]	inhibition at 80 µM [2] [%]
CC(=O)OCCc1ccc(O)c(O)c1 [hydroxytyrosol acetate, Hydroxytyrosol Acetate]	no binding trends	103.09% and 102.91%	3.78 ± 0.453	3.85 ± 0.576	103
COc1cc(C(=S)N2CCOCC2)ccc1O [vanitiolide, Vanitiolide]	no binding trends	99.16% and 98.95%	1.42 ± 0.076	2.84 ± 0.225	99.1
